Measurements reported in patent US20040180880A1, “Piperazine and piperidine derivatives” (priority 2002, published 2004).
Where a name gives a salt, the structure may show the parent alone.

Assays:
[1] = tested on: rat embryo ventral mesencephalic (VM) cells; experiment: Neuroprotection assay: NMDA injury of ventral mesencephalic cultures, read by high affinity 3H-dopamine uptake; format: cell-based; conditions: embryonic day 15 Sprague-Dawley rat VM cells, NMDA 100-400 μM for 20 hours, read-out: DAT (VM) IC50
Excerpt: The neuroprotective activity of the compounds of this invention may be assayed using rat embryo ventral mesencephalic cells in culture which are subsequently exposed to the glutamate receptor agonist NMDA. This assay is described in detail in the example section.
The ventral mesencephalic region was dissected out of embryonic day 15 Sprague-Dawley rat embryos (Harlan), dissociated into single cell suspension by a combination of trypsinization and trituration (Costantini et al., Neurobiol Dis., pp. 97-106 (1998). Dissociated VM cells were plated into poly-L-ornithine-coated 96-well plates at a density of 85,000 cells/well in 100 uL of DMEM supplemented with 18% heat-inactivated horse serum, 0.24% glucose, 2 mM glutamine and 50 u/ml pernicillin/streptomycin and incubated in a 5% CO2 incubator. After one day in culture (DIV1), the medium was replaced with 100 μL of a defined medium (DMEM supplemented with 1×N2 cocktail (Gibco-BRL), 0.12% glucose, 2 mM glutamine, and […] penicillin/streptomycin) containing DMSO or various concentrations of the compounds of this invention. On DIV5, neuroexcitotoxic injury was induced by the addition of various concentrations of the glutamate receptor agonist NMDA (100-400 μM). Cultures were incubated with the neurotoxin for 20 hours and the effects of neurophilin compounds were assessed using high affinity ^3H-dopamine uptake according to a procedure published by Park and Mytilineou [Brain Res., 599, pp. 83-97 (1992)].

Compound	melting point	IC50 [1]
O=C(C1CCCCN1)N1CCN(C(c2ccc(F)cc2F)c2ccc(F)cc2F)CC1 (stereo not shown) (as salt: hydrochloride) [Compound 9, {4-[Bis-(2,4-difluoro-phenyl)-methyl]-piperazin-1-yl}-piperidin-2-yl-methanone]	84 to 85 °C	–
O=C(C1CCCCN1)N1CCN(C(c2ccc(F)cc2F)c2ccc(F)cc2F)CC1 (stereo not shown) [Compound 9, {4-[Bis-(2,4-difluoro-phenyl)-methyl]-piperazin-1-yl}-piperidin-2-yl-methanone]	–	145 nM
O=C(C1CCCCN1)N1CCN(C(c2ccc(F)c(F)c2)c2ccc(F)c(F)c2)CC1 (stereo not shown) [Compound 17, (4-(Bis-(3,4-difluoro-phenyl)-methyl)piperazine-1-yl)-piperidin-2-yl-methanone]	–	6 nM
O=C(C1CCCCN1)N1CCN(C(c2ccc(F)cc2)c2ccc(F)cc2)CC1 (stereo not shown) [Compound 28, (4-(Bis-(4-fluoro-phenyl)-methyl)piperazine-1-yl)-piperidin-2-yl-methanone dihydrochloride]	–	12 nM
